Experimental data reported in patent US20060205949A1, “Crystalline forms of a biphenyl compound” (THERAVANCE, INC., priority 2005, published 2006).

Molecular target: T1, M3 muscarinic receptor subtype (hM3) (Homo sapiens, UniProt P20309)
T1 construct: expressed in transfected cells
Experiment: Radioligand binding assay ([3H]-NMS displacement)
Details: CHO cell membranes, tested in this or a similar assay
Procedure: CHO cell lines stably expressing cloned human hM1, hM2, hM3 and hM4 muscarinic receptor subtypes, respectively, were grown to near confluency in medium consisting of HAM's F-12 supplemented with 10% FBS and 250 μg/mL Geneticin. The cells were grown in a 5% CO2, 37° C. incubator and lifted with 2 mM EDTA in DPBS. Cells were collected by 5 minute centrifugation at 650×g, and cell pellets were either stored frozen at −80° C. or membranes were prepared immediately. For membrane preparation, cell pellets were resuspended in lysis buffer and homogenized with a Polytron PT-2100 tissue disrupter (Kinematica AG; 20 seconds×2 bursts). Crude membranes were centrifuged at 40,000×g for 15 minutes at 4° C. […] The protein concentration of the membrane suspension was determined by the method described in Lowry, O. et al., Journal of Biochemistry 193:265 (1951). […]
Radioligand binding assays were performed in 96-well microtiter plates in a total assay volume of 100 μL. […] Filter plates were rinsed three times with wash buffer (10 mM HEPES) to remove unbound radioactivity. […] The plates were then counted in a PerkinElmer Topcount liquid scintillation counter (PerkinElmer Inc., Wellesley, Mass.). Binding data were analyzed by nonlinear regression analysis with the GraphPad Prism Software package (GraphPad Software, Inc., San Diego, Calif.) using the one-site competition model. […]

T1 sequence (P20309 whole entry): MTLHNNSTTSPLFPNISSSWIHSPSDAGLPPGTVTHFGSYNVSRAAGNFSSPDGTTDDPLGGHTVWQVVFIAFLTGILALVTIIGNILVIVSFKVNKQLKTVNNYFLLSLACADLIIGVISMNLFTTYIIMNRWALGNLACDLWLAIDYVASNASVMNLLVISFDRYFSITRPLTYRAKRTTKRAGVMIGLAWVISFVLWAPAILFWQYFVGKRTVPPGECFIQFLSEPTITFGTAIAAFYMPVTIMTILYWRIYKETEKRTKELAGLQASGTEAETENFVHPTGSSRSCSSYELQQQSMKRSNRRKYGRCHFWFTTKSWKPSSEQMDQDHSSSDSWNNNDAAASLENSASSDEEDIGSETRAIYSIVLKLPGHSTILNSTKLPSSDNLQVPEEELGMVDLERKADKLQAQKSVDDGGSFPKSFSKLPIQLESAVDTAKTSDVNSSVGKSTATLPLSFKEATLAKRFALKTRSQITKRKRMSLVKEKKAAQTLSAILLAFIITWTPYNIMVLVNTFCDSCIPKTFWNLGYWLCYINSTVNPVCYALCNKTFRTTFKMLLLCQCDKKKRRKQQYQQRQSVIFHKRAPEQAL

Compound: O=C(CCN1CCC(OC(=O)Nc2ccccc2-c2ccccc2)CC1)NCCCCCNCc1ccc(O)cc1 [compound of formula I, biphenyl-2-ylcarbamic acid 1-{2-[5-(4-hydroxybenzylamino)pentylcarbamoyl]ethyl}piperidin-4-yl ester]
- Ki: < 5 nM
